Experiment: solvent given as SMILES

CCCCCCCCCCCCCCCCCCCC
Settings | solvation free energy, 298 K [kcal/mol]
in CC(=O)N(C)C | -13.6
in CC(C)(C)O | -12.4
in CCC(C)=O | -12.6
in CCCCCCCCC=CCCCCCCCC(=O)OCC(COC(=O)CCCCCCCC=CCCCCCCCC)OC(=O)CCCCCCCC=CCCCCCCCC | -12.5
in CCCCOC(C)=O | -12.9
in CCO | -11.4
in CN(C)C=O | -13.6
in COC(C)(C)C | -13.5
in O | 4.52

Cl
Settings | solvation free energy, 298 K [kcal/mol]
in C=CCCCCCCCCCCCCCC | -0.82
in ClC(Cl)(Cl)Cl | -0.86

CC1CCCC(C)(C)C1 (centres undefined)
Settings | solvation free energy, 298 K [kcal/mol]
in O | 2.23

CC(=O)C1COCCOCCOCCOCCOc2ccccc2O1 (centres undefined)
Settings | solvation free energy, 298 K [kcal/mol]
in Cc1cccc(C)c1 | -19.2
in O | -17.8

O=[N+]([O-])c1cc[n+]([O-])cc1
Settings | solvation free energy, 298 K [kcal/mol]
in CC(C)CC(C)(C)C | -7.06
in CCCCCC | -7.08
in CCCCCCC | -7.12
in CCCCCCCC | -7.13
in CCCCCCCCCC | -7.16

CN(C)C1CCCCC1
Settings | solvation free energy, 298 K [kcal/mol]
in O | -4.12

CC(C)C(C)C(C)C
Settings | solvation free energy, 298 K [kcal/mol]
in Brc1ccccc1 | -4.64
in C1CCCCC1 | -5.1
in C1CCOC1 | -4.92
in C1COCCO1 | -4.17
in C=CCCCC | -5
in C=CCCCCCC | -4.92
in C=CCCCCCCCC | -4.84
in CC1COC(=O)O1 | -2.86
in CC#N | -3.46
in CC(=O)N(C)C | -3.7
in CC(=O)O | -3.77
in CC(=O)c1ccccc1 | -3.96
in CC(C)=O | -4.14
in CC(C)CC(C)(C)C | -4.9
in CC(C)CCCC(C)CCCC(C)CCCCC(C)CCCC(C)CCCC(C)C | -4.48
in CC(C)CCO | -4.31
in CC(C)O | -4.09
in CC(C)OC(C)C | -4.9
in CCBr | -5.01
in CCC#N | -3.86
in CCC(C)=O | -4.39
in CCCC#N | -4.14
in CCCC(=O)OCC | -4.61
in CCCC(C)=O | -4.49
in CCCCC | -5.05
in CCCCCC | -5.03
in CCCCCC(C)=O | -4.51
in CCCCCCC | -4.98
in CCCCCCCC | -4.91
in CCCCCCCCC | -4.87
in CCCCCCCCCC | -4.84
in CCCCCCCCCCCC | -4.74
in CCCCCCCCCCCCCCCC | -4.66
in CCCCCCCCO | -4.33
in CCCCCCOC(C)=O | -4.59
in CCCCO | -4.23
in CCCCOC(C)=O | -4.56
in CCCCOCCCC | -4.88
in CCCO | -4.1
in CCN(CC)CC | -4.98
in CCO | -4.02
in CCOC(C)=O | -4.41
in CCOCC | -4.96
in CCOCCOCCOCC | -4.33
in CCOc1ccccc1 | -4.42
in CN1CCCC1=O | -3.6
in CN(C)C=O | -3.53
in CN(C)P(=O)(N(C)C)N(C)C | -3.97
in CNC=O | -3.19
in CO | -3.64
in COC(C)=O | -4.22
in COCCO | -3.52
in COc1ccccc1 | -4.35
in CS(C)=O | -2.63
in Cc1ccc(C)cc1 | -4.85
in Cc1ccccc1 | -4.85
in Cc1ccccn1 | -4.45
in ClC(Cl)(Cl)Cl | -5.09
in ClC(Cl)Cl | -4.98
in ClCCCl | -4.4
in ClCCl | -4.74
in Clc1ccccc1 | -4.84
in FC(F)(F)C(F)(F)C(F)(F)C(F)(F)C(F)(F)C(F)(F)C(F)(F)C(F)(F)F | -3.34
in FC(F)(F)C(F)(F)C(F)(F)C(F)(F)C(F)(F)C(F)(F)F | -3.4
in Fc1ccccc1 | -4.75
in ICI | -2.94
in N#Cc1ccccc1 | -4.01
in Nc1ccccc1 | -3.27
in O | 2.57
in O=C1CCCCC1 | -4.32
in O=C1CCCO1 | -3.01
in OCc1ccccc1 | -3.52
in S=C=S | -5.06
in c1ccccc1 | -4.83
in c1ccncc1 | -4.17

CC(=O)CCCCC(C)C
Settings | solvation free energy, 298 K [kcal/mol]
in NC=O | -5.09
in O | -2.84

OCC(O)C(O)C(O)C(O)CO (centres undefined)
Settings | solvation free energy, 298 K [kcal/mol]
in O | -23.6

CCOCCOC
Settings | solvation free energy, 298 K [kcal/mol]
in ClC(Cl)(Cl)Cl | -5.85

Cc1ccc(C(C)C)cc1
Settings | solvation free energy, 298 K [kcal/mol]
in COCCO | -5.72
in CS(C)=O | -5.55
in O | -0.67

CC1=CCC2C(C)=CCC(C(C)C)C2C1 (centres undefined)
Settings | solvation free energy, 298 K [kcal/mol]
in O | -0.38

Clc1ccc2c(c1)Oc1ccccc1O2
Settings | solvation free energy, 298 K [kcal/mol]
in O | -3.1

CC1(C)CCCC2(C)C3CC4C(C31)C42C (centres undefined)
Settings | solvation free energy, 298 K [kcal/mol]
in O | 1.12

C=C1C=CC(C(C)C)CC1 (centres undefined)
Settings | solvation free energy, 298 K [kcal/mol]
in O | 0.26

CCCCCOC(=O)c1ccccc1C(=O)OCCCCC
Settings | solvation free energy, 298 K [kcal/mol]
in O | -6.96

CCCCC(C)=O
Settings | solvation free energy, 298 K [kcal/mol]
in C1COCCO1 | -5.69
in CC(C)CC(C)(C)C | -4.72
in CCCCCC | -4.68
in CCCCCCC | -4.55
in CCCCCCCC | -4.6
in CCCCCCCCCC | -4.61
in CCCCCCCCCCCCCCCC | -4.39
in CCCCCCCCO | -5.02
in CO | -5.21
in ClC(Cl)(Cl)Cl | -5.36
in NC=O | -4.46
in O | -3.3
in [2H]O[2H] | -3.24

Oc1ccc(Cl)cc1
Settings | solvation free energy, 298 K [kcal/mol]
in CC(C)CC(C)(C)C | -6.6
in CCCCCC | -6.91
in CCCCCCC | -6.89
in CCCCCCCC | -6.88
in CCCCCCCCCC | -6.89
in Cc1ccc(C)cc1 | -8.29
in Cc1cccc(C)c1 | -8.39
in Cc1ccccc1C | -8.48
in O | -7.04

Source: the CombiSolv-Exp solvation set (Vermeire and Green 2021)
